Results as given in ChEMBL document CHEMBL6096666, “Design, synthesis and biological evaluation of alginate oligosaccharide derivatives” (Bioorg Med Chem Lett, 2025).
The source made the active and inactive calls. The calls are words filed in the database; no cut-off is given here.

Columns and labels:
HK-2 [1] = experiment: Anti-inflammatory activity against H/R induced damage in human HK-2 cells assessed as inhibition of IL-1beta protein expression pretreated with compound followed by hypoxic reoxygenation induction; format: functional, cell-based
Rattus norvegicus = species on record: Rattus norvegicus; experiment: Protection against kidney ischemia-reperfusion injury in rat model assessed as decrease in blood creatinine level; format: functional, organism-based
HK-2 [2] = experiment: Anti-inflammatory activity against H/R induced damage in human HK-2 cells assessed as inhibition of TLR4 protein expression pretreated with compound followed by hypoxic reoxygenation induction; format: functional, cell-based
HK-2 [3] = experiment: Anti-inflammatory activity against H/R induced damage in human HK-2 cells assessed as inhibition of p-NFkappaB protein expression pretreated with compound followed by hypoxic reoxygenation induction; format: functional, cell-based
HK-2 [4] = experiment: Anti-inflammatory activity against H/R induced damage in human HK-2 cells assessed as inhibition of MyD88 protein expression pretreated with compound followed by hypoxic reoxygenation induction; format: functional, cell-based

| Compound | Activity (HK-2 [1]) | Activity (Rattus norvegicus) | Activity (HK-2 [2]) | Activity (HK-2 [3]) | Activity (HK-2 [4]) |
| --- | --- | --- | --- | --- | --- |
| O=C(O)[C@@H]1C[C@@H](O)[C@@H](O)[C@H](O[C@@H]2[C@@H](O)[C@@H](O)[C@H](O[C@@H]3[C@@H](O)[C@@H](O)[C@@H](O)O[C@@H]3C(=O)O)O[C@@H]2C(=O)O)O1 | Active | Active | – | – | – |
| O=C(O)[C@@H]1C[C@@H](O)[C@@H](O)[C@H](O[C@@H]2[C@@H](O)[C@@H](O)[C@H](O[C@@H]3[C@@H](O)[C@@H](O)[C@H](O[C@@H]4[C@@H](O)[C@@H](O)[C@@H](O)O[C@@H]4C(=O)O)O[C@@H]3C(=O)O)O[C@@H]2C(=O)O)O1 | – | – | Active | – | – |
| O=C(O)[C@@H]1C[C@@H](O)[C@@H](O)[C@H](O[C@@H]2[C@@H](O)[C@@H](O)[C@H](O[C@H]([C@@H](O)[C@@H](O)C(=O)O)[C@H](O)C(=O)O)O[C@@H]2C(=O)O)O1 | Active | – | Active | Active | Active |
| O=C(O)[C@@H]1C[C@@H](O)[C@@H](O)[C@H](O[C@@H]2[C@@H](O)[C@@H](O)[C@@H](O)O[C@@H]2C(=O)O)O1 | – | Active | Active | – | – |
